By melting point is commonly meant the temperature, or range, at which the solid turns liquid. As to `COc1ccc2cccc(N3C(=O)CNCC3=O)c2c1`, the melting point is 232 °C.
The same measure for `CN1CC[C@@H](c2c(O)cc(O)c3c(=O)cc(-c4ccc(Br)cc4Cl)oc23)[C@@H]1CO`: 155 to 156 °C; for `COc1ccc(C(=O)/C=C/N(C)C)cc1COC(=O)C(C)(C)C`: 82 to 84 °C; for `CC(C)c1nc(CO)n(Cc2cccnc2)c1Sc1cc(Cl)cc(Cl)c1`: 136 to 139 °C.
In the case of `CC(C)C(NC(=O)Nc1ccc(C(=O)NCC(=O)N(C)C)cc1)C(=O)N1CCCC1C(=O)NC(C(=O)C(F)(F)F)C(C)C` (mixture of isomers), the melting point fell in the range of 115 to 125 °C.
`N#Cc1cccnc1N1CCN(CC(=O)Nc2cccc(C(F)(F)F)c2F)CC1` returned a melting point of 118 to 121 °C.
As for `Cc1cc(C)cc(-n2ncc(C(=O)O)c2C(N)=O)c1`, the melting point fell in the range of 223 to 225 °C.
Molecule `O=C(Nc1ccc(N2CCOCC2)cc1)Nc1ccc(C(F)(F)F)cc1` displayed a melting point of 228 to 232 °C.
The same measure for `Cn1ccnc1C1(CCCCc2ccc(NC(=O)c3ccccc3)cc2)c2ccccc2-c2ccccc21`: 146 to 148 °C.
In the case of `N#Cc1c(N2CCc3ccccc3CC2)nc(CCO)[nH]c1=O`, the melting point was 184 to 188 °C.
In turn, `COc1ccc2c3c1c(C)c(-c1ccc(O)cc1)n3CC(CCO)O2` (stereo not drawn) displayed a melting point of 190 °C.
In turn, `NS(=O)(=O)c1cc(C(=O)O)cc(NCc2ccccc2)c1NCCc1ccccc1` returned a melting point of 203 °C.
`CCCNc1onc2c1c(=O)n(C)c(=O)n2C` displayed a melting point of 164 to 166 °C.
As for `CC(C)(C)NC(=O)C(C#N)=NO`, the melting point lay in the range of 218 to 219 °C.
Consider `N#Cc1cc(-c2cc(C(F)F)c3cn[nH]c3n2)ccc1N`, for which the melting point was determined as 263 °C.
The same measure for `COc1c(Cl)ccc(-c2cc(N)c(Cl)c(C(=O)NOCc3ccco3)n2)c1F`: 161 to 164 °C; for `CCCC(CC1CCc2c(cccc2OCC(=O)OC)C1)=NO` (stereo not drawn): 95.9 to 97 °C; for `O=C(O)c1cc(NC(=O)C(CS)Cc2ccccc2)ccc1N1CCCC1` (stereo not drawn): 196 to 198 °C.
The same measure for `N#Cc1cccc2nc(CCC#Cc3ccccn3)oc12`: 126 °C; for `COc1cc2c(cc1O)CCN(CC(=O)c1ccc(OC)c(OC)c1)C2`: 149 to 150 °C; for `Cc1cc2c(cc1C)C(c1ccccc1Cl)C(=O)N2` (stereo not drawn): 231 °C.
The same measure for `O=C(Nc1ccc(-c2c[nH]c(=O)cn2)cc1)c1ccc([N+](=O)[O-])cc1`: 298 to 300 °C; for `CCOC(=O)[C@H]1CC(OC(C)=O)CN1S(=O)(=O)c1ccc(C)cc1` (stereo partly drawn): 82 to 83 °C.
As for `N#Cc1ccc(CN2CCN(c3ccncc3)CC2)cc1`, the melting point lay within 137 to 138 °C.
The same measure for `CCOC(=O)Cn1nnnc1C(=O)OCC`: 26 to 29.5 °C; for `CCC1=C(C)C(=O)NC1C` (stereo not drawn): 83 °C; for `O=S(CCO)Cc1cccnc1` (stereo not drawn): 84 to 86 °C.
On to `CCn1nc2c(N)nc3c(c2c1CC(C)C)CCCC3`, for which the melting point lay in the range of 206 to 207 °C.
On to `CC(C)n1c(=O)ccc2cnc(Nc3cccnc3)nc21`, for which the melting point is 156 to 158 °C.
`CC(C)(C)c1cc(CCc2ccccc2NC(=O)NCC2CCCCC2)cc(C(C)(C)C)c1O` returned a melting point of 208 to 210 °C.
On to `O=C1OC(=Cc2ccccc2)c2ccc(-c3ccccc3)cc21`, for which the melting point was 187 °C.
`CCCCOCCOc1ccc(-c2ccc(N3CCC(C)CC3)c(C=CC(=O)O)c2)cc1` had a melting point of 159 to 160 °C.
`Nc1c(CC(=O)O)cccc1Oc1ccc(Cl)cc1Cl` had a melting point of 123 to 124 °C.
The same measure for `CC(C)(C)OC(=O)[C@@H]1CC[C@H](NC(=O)CNC(=O)c2ccc(OCc3ccccc3)c(C(C)(C)C)c2)[C@H](C(=O)O)C1`: 126 to 132 °C; for `CC(C)(C)P1(=O)c2ccccc2CN1c1ccccc1` (stereo not drawn): 171 to 172 °C.
`Cn1cnc(COc2nc3c(cc2-c2cccs2)nnn3-c2ccccc2F)n1` registered a melting point of 179 to 181 °C.
In turn, `CC(=O)OCc1nc(C(C)C)c(Sc2cc(Cl)cc(Cl)c2)n1C` registered a melting point of 92 to 93 °C.
The same measure for `Cc1cccc(-c2cc(C(F)(F)F)n3cnc(C#N)c3n2)c1`: 202 °C; for `O=c1ccoc2c(C/C=C/c3ccccc3)c(OCc3ccccc3)ccc12`: 131 to 133 °C.
`O=S(=O)(Nc1nc2ccccc2nc1Nc1cccc2ccccc12)c1ccc(Cl)cc1` registered a melting point of 262 to 265 °C.
`CCOC(=O)/C=C/c1cn(-c2ccc(Cl)cn2)nc1C(C)C` showed a melting point of 105 to 106 °C.
The same measure for `O=C(NCC1CC1)NCC1CC1`: 127 to 130 °C.
Molecule `CN1C(=O)CCC2(C)c3ccc(SCc4cc5ccccc5cn4)cc3CCC12` (single isomer, unassigned; (+)) registered a melting point of 129 to 130 °C.
`O=C(CCCC1CCCCC1)N1C(=O)OC[C@@H]1Cc1ccccc1`: the melting point was in the range of 69 to 70 °C.
In turn, `CC(=O)OCC1OC(OC2C(COC(C)=O)OC(OCCBr)C(OC(C)=O)C2OC(C)=O)C(OC(C)=O)C(OC(C)=O)C1OC(C)=O` (stereo not drawn) displayed a melting point of 151 to 152 °C.
`CN1C(O)=C(C(=O)Nc2ccc(Cl)cc2)c2cscc2S1(=O)=O` showed a melting point of 154 to 156 °C.
For the molecule `COC(OC)C(CNC(=O)c1cc2cc(O)cc([N+](=O)[O-])c2[nH]1)SCc1ccccc1` (stereo not drawn), the melting point lay in the range of 134 to 135 °C.
Molecule `O=CNc1nc(-c2cccnc2)c(Cl)s1` registered a melting point of 229 °C.
Consider `CCOc1nn(-c2ccccn2)cc1CCCOc1cc(CCC(=O)O)n(-c2ccccc2)n1`, for which the melting point was in the range of 156 to 157 °C.
`CCOC(=O)C=Cc1ccc(OCCCCOCc2ccccc2)nc1NC(=O)C(C)(C)C` registered a melting point of 75 to 76 °C.
In turn, `Cc1[nH]c2ccc(C3=NNC(=O)CC3)cc2c1-c1ccccc1` gave a melting point of 297 to 299 °C.
`CCCCc1nc2c(N)nc3cccnc3c2n1CCCCN1CC=Cc2cc(C(N)=O)ccc21` came in with a melting point of 190 to 191 °C.
The same measure for `Cc1sc(N)c(C(=O)c2ccc(Cl)cc2)c1CN1CCN(c2cccc(F)c2)CC1`: 140 to 141 °C; for `Cc1cc(Br)c(N)cc1Cl`: 90 °C; for `CCCc1nc(-n2cccc2)c(C(=O)OCC)[nH]1`: 134 to 135 °C.
`COc1ccc2ccc(N3C(=O)c4ccccc4C3NCCCN(C)C)nc2n1` (stereo not drawn) displayed a melting point of 128 °C.
Turning to `CC(=O)Nc1ccc(NCCSC#N)c([N+](=O)[O-])c1`, the melting point was found to be 168 °C.
`CC1=CC(OC(=O)c2nc[nH]c2C)C(O)C(C)(C)CC1=O` (stereo not drawn): the melting point lay in the range of 99 to 101 °C.
Molecule `COCC(=O)Nc1c(C(O)(C(F)(F)F)C(F)(F)F)ccc2ccccc12` gave a melting point of 120 to 121 °C.
For the molecule `O=c1c2cnc(-c3ccccc3)nc2sn1Cc1ccccn1`, the melting point lay within 154 to 156 °C.
The molecule `Nc1sc(-c2ccncc2)c(CN(C2CCCCC2)C2CCCCC2)c1C(=O)c1ccc(Cl)cc1` gave a melting point of 214 to 216 °C.
The same measure for `CCC(CC)n1cc(Cl)nc(N2CCc3cc(OC)cc(C)c32)c1=O`: 164 to 165 °C.
`COC(=O)[C@H]1CN(C(=O)OC(C)(C)C)C[C@H]1c1ccc(OC)c(OC2CCCC2)c1` (relative stereo) came in with a melting point of 85 to 87 °C.
`CC(=O)OC1CCC(NC(=O)Nc2ccccc2CCc2cc(C(C)(C)C)c(O)c(C(C)(C)C)c2)CC1` (stereo not drawn) returned a melting point of 92 to 94 °C.
`O=Cc1cnc(Oc2ccccc2)s1`: the melting point is 50 °C.
In turn, `Cc1cc(C)cc(C(=O)OC2CCCCC2=O)c1` (stereo not drawn) registered a melting point of 65 to 66 °C.
The same measure for `COC(=O)C1CCC2C3CCC4CC5OC5CC4(C)C3C(NC(=O)OCC(Cl)(Cl)Cl)CC12C` (stereo not drawn): 153 to 155 °C; for `CC(C)=NNc1cc2c(nn1)CCN(C(=O)c1ccccc1F)C2`: 200 to 203 °C; for `CCCCCCCc1ccc(C(=O)CCCCC(=O)O)cc1N`: 100 to 102 °C.
`CCCNC(=O)C1(CCCCP(=O)(c2ccccc2)c2ccccc2)c2ccccc2-c2ccccc21`: the melting point lay in the range of 163 to 165 °C.
For the molecule `COc1ccc(CCC(=O)O)cc1OCCCc1cn(-c2ccc(C(F)(F)F)cn2)nc1C(C)C`, the melting point lay within 93 to 94 °C.
Regarding `CC(=O)N1CCC(C(=O)N[C@@H](CC(C)C)C(=O)N[C@@H](C(C)C)[C@@H](O)c2c(-c3ccccc3)c2=O)CC1`, the melting point is 120 to 124 °C.
The same measure for `[N-]=[N+]=Nc1cc(=O)oc2ccccc12`: 159 to 160 °C.
On to `COC(=O)C1=C(C)Nc2ccccc2NC1c1ccccc1[N+](=O)[O-]` (stereo not drawn), for which the melting point is 190 to 192 °C.
Turning to `COc1ccc2c(c1)CCC1C2CCC2(C)C(=NN(C)C)C(C)CC12` (stereo not drawn), the melting point lay within 122 to 124 °C.
`O=C(O)c1snc(-c2ccc(Cl)c(Cl)c2)c1C(=O)O`: the melting point was determined as 188 °C.
The same measure for `CCNc1nc(Cc2ccc(OC)c(OC)c2)nc2sc(C#N)c(C)c12`: 125 to 126 °C; for `CNC(=O)c1cccc(NC(=O)Cc2ccc3c(c2)OCO3)c1`: 174 to 175 °C.
Molecule `COC(=O)c1ccccc1NS(=O)(=O)c1ccc(C(=O)NCCc2ccccc2)cc1` yielded a melting point of 167 to 168 °C.
On to `CNC(=C[N+](=O)[O-])NCCCCCCCCCCCCNC(=C[N+](=O)[O-])NCCSCc1ccc(CN(C)C)o1`, for which the melting point was in the range of 78 to 80 °C.
As to `CS(=O)(=O)c1ccc(-c2cnn(C3CCc4ccccc43)c(=O)c2-c2ccc(F)cc2)cc1` (stereo not drawn), the melting point was in the range of 128 to 130 °C.
Molecule `CN(C)CCNC(=O)N1CCN(c2ccc(Cl)cc2)CC1` displayed a melting point of 125 to 128 °C.
`CCN1CCC(O)(c2cccc(Cl)c2F)C1` (stereo not drawn) came in with a melting point of 71 to 74 °C.
Turning to `CSc1nn(C(=O)NC(C)CCl)c(=O)n1N` (stereo not drawn), the melting point amounted to 136 °C.
In turn, `Cc1nc(-c2ccc(CCN3CCN(c4cccc(C(F)(F)F)c4)CC3)cc2)cs1` registered a melting point of 170 to 175 °C.
`CCCCCC(Cc1cnc(SCCC)n1Cc1ccccc1Cl)C(=O)O` (stereo not drawn): the melting point is 122 to 124 °C.
The same measure for `CCN(C(=O)Cn1c(=O)n(C)c2nc(-c3ccccc3)ncc21)c1ccccc1`: 240 to 242 °C; for `O=S1(=O)N=CN(C2CC2)c2cc(Br)cc(F)c21`: 285 to 287 °C.
